In patent US5049637A, “1,2,3,4,10,14b-hexahydrodibenzo[c,f]pyrazino-[1,2-a]azepino derivatives and 10-aza, 10-oxa and 10-thia analogues” (Monash University, priority 1987, dated 1991):
Counter-ions that a name gives are not always drawn.

Legend:
[1] = system: central nervous system (morphine induced catalepsy); assay: Morphine induced catalepsy in the rat; format: in vivo; conditions: for Action in morphine induced catalepsy test: rat, mianserin in low doses
Method: (§1) Thus doses of 1 mg/kg given intraperitoneally attenuated the facilitation of spinal reflex activity caused by p-chloroamphetamine, and also the facilitation of spinal reflexes induced by fenfluramine in spinal and decerebrate rats. […] The drug in doses of 10 and 20 mg/kg intraperitoneally and in doses of 20 mg/kg by mouth attenuated morphine-induced catalepsy. We conclude therefore that this drug is an orally active drug with central actions, particularly affecting serotonergic mechanisms, but has no effect in vitro (Table 1). […] Thus it was found after intravenous doses of 0.03 mg/kg to reduce histamine and 5-hydroxytryptamine bronchoconstriction in the guinea pig.

[2] = system: isolated guinea pig ileum (carbachol-induced contractions); assay: Block of carbachol-induced contraction of the isolated guinea-pig ileum; conditions: block of contractions of isolated guinea pig ileum induced by carbachol
Method: (§2) Compounds according to formula I were tested for their ability to block contractions of the isolated guinea pig ileum induced by KCl, carbachol, or histamine at a concentration of 10^-7 M. Ileum preparations were prepared according to standard methodology. The concentrations shown are the minimum required to show activity.

[3] = system: spinal reflex activity (serotonergic mechanisms); assay: Facilitation of spinal reflexes by p-chloroamphetamine, fenfluramine or clonidine in spinal and decerebrate rats; format: in vivo, rat
Method: as §1

[4] = system: bronchoconstrictor effects of histamine and 5-hydroxytryptamine; assay: Histamine and 5-hydroxytryptamine induced bronchoconstriction in guinea pigs; format: in vivo, guinea pig; conditions: Cavia porcellus, intravenous, read-out: Intravenous dose reducing histamine and 5-hydroxytryptamine bronchoconstriction
Method: (§3) The compound of Example 2 was found in low concentrations to inhibit contractions of the guinea-pig isolated ileum and rat isolated stomach strip caused by histamine and 5-hydroxytryptamine respectively. […] Concomitantly, the depressor effects of histamine were blocked, as were the pressor effects of 5-hydroxytryptamine for over 30 minutes. The pressor effects of 5-hydroxytryptamine in anaesthetised and pithed rats were inhibited by intravenous doses of 0.3-1.0 mg/kg body weight. Slightly higher doses reduced the bradycardia and the depressor response (the Bezold-Jarisch reflex mediated by 5-HT3 receptors) to 5-hydroxytryptamine in anaesthetised rats. The drug inhibited oedema in the rat paw caused by intraplantar 5-hydroxytryptamine. […] In mice it inhibited diarrhoea caused by L-5-hydroxytryptophan. In guinea pigs, intravenous doses of 0.03 mg/kg and above reduced the bronchoconstrictor effects of histamine and 5-hydroxytryptamine.
(§4) In cats, the effects of the ganglion stimulant McNeil -A-343 and histamine were reduced. Following intravenous injection into guinea-pigs, […] reduced histamine and 5-hydroxytryptamine induced broncho-constriction. Concentrations of 1 μg/ml or greater relaxed the isolated rat uterus in vitro.
(§5) The compound of Example 4 when injected into rats at intravenous doses of 0.3 mg/kg or greater reduced the pressor effects of 5-hydroxytryptamine and also the depressor effects of histamine. In cats, the effect of histamine was reduced after these doses also.
as §1

[5] = system: isolated guinea pig ileum (histamine-induced contractions); assay: Block of histamine-induced contraction of the isolated guinea-pig ileum; conditions: for minimal effective concentration: Cavia porcellus, isolated guinea pig ileum, histamine 10^-7 M, read-out: Effect on Histamine: minimum concentration required to show activity; for Effect on Histamine: block of contractions of isolated guinea pig ileum induced by histamine at 10^-7 M
Method: as §3, §2

[6] = system: isolated guinea pig ileum (KCl-induced contractions); assay: Block of KCl-induced contraction of the isolated guinea-pig ileum; conditions: block of contractions of isolated guinea pig ileum induced by KCl
Method: as §2

[7] = system: central nervous system (spinal flexor reflex); assay: Spinal flexor reflex in the rat; format: in vivo; conditions: mianserin in low doses
[8] = system: central nervous system (L-5-hydroxytryptophan-induced head twitch); assay: L-5-hydroxytryptophan-induced head twitch in the mouse; format: in vivo; conditions: mianserin in low doses
[9] = system: depressor effects of histamine; assay: Depressor effects of histamine in rats; format: in vivo, rat; conditions: intravenous 0.1 mg/kg or greater
Method: as §3, §5

conscious cats = assay: Behavioural changes and acute toxicity in the cat; format: in vivo
[10] = system: 5-HT3 receptors (Bezold-Jarisch reflex); assay: Bradycardia and depressor response (Bezold-Jarisch reflex) to 5-hydroxytryptamine in anaesthetised rats; format: in vivo, rat; conditions: doses slightly higher than 0.3-1.0 mg/kg i.v.
Method: as §3

[11] = Penetration into the central nervous system; format: in vivo; conditions: for Ability to penetrate into the CNS: in vivo
[12] = system: diarrhoea caused by L-5-hydroxytryptophan; assay: Diarrhoea caused by L-5-hydroxytryptophan in mice; format: in vivo, mouse
Method: as §3

[13] = system: depressor effects of histamine; assay: Effects of histamine in cats; format: in vivo, cat; conditions: intravenous
Method: as §3, §4, §5

[14] = system: pressor effects of 5-hydroxytryptamine; assay: Pressor effects of 5-hydroxytryptamine in cats; format: in vivo, cat; conditions: intravenous 0.1 mg/kg or greater
Method: as §3

[15] = system: pressor effects of 5-hydroxytryptamine; assay: Pressor effects of 5-hydroxytryptamine in rats; format: in vivo, rat; conditions: rats, intravenous 0.1 mg/kg or greater
Method: as §3, §4, §5

[16] = system: arterial blood pressure and heart rate; assay: Arterial blood pressure, heart rate and pressor responses to noradrenaline, sympathetic nerve stimulation and tyramine after intravenous injection into cats; format: in vivo, cat
[17] = system: arterial blood pressure and heart rate; assay: Arterial blood pressure, heart rate and pressor responses to noradrenaline, sympathetic nerve stimulation and tyramine after intravenous injection into rats; format: in vivo, rat; conditions: rats
[18] = system: rat isolated stomach strip (5-hydroxytryptamine-induced contractions); assay: Contractions of rat isolated stomach strip caused by 5-hydroxytryptamine
Method: as §3

[19] = system: rat paw oedema caused by 5-hydroxytryptamine; assay: Oedema in the rat paw caused by intraplantar 5-hydroxytryptamine; format: in vivo
Method: as §3

[20] = system: effects of histamine and 5-hydroxytryptamine on blood pressure and heart rate; assay: Effects of histamine and 5-hydroxytryptamine on blood pressure and heart rate in the chloral-anaesthetized rat; format: in vivo
[21] = intravenous 0.1 mg/kg or greater

Compound: NC(=O)N1CCN2c3ccccc3Cc3ccccc3C2C1 (stereo not shown) [Example 5, 2-Carboxamido-1,2,3,4,10,14b-hexahydrodibenzo [c,f]pyrazino[1,2-a]azepine]
- Morphine-induced catalepsy ([1]; 20 mg/kg by mouth): attenuated
- Morphine-induced catalepsy ([1]; 10 and 20 mg/kg intraperitoneally): attenuated
- Effect on Carbachol [2]: - (no effect)
- Facilitation of spinal reflex activity caused by p-chloroamphetamine ([3]; 1 mg/kg intraperitoneally): attenuated
- Facilitation of spinal reflexes induced by fenfluramine ([3]; 1 mg/kg intraperitoneally, spinal and decerebrate rats): attenuated
- Facilitation of spinal reflexes caused by clonidine ([3]; at these dose levels (1 mg/kg intraperitoneally)): did not antagonise
- minimal effective dose [4]: 0.03 mg/kg
- minimal effective concentration [5]: 0.01 to 0.1 µM
- Effect on Histamine [5]: ++
- Effect on KCl [6]: - (no effect)

Compound: CN1CCN2c3ccccc3Cc3ccccc3C2C1 (stereo not shown) [mianserin, 1,2,3,4,10,14b-hexahydro-2-methyldibenzo [c,f]pyrazino[1,2-a]azepine, reference compound]
- Action in morphine induced catalepsy test [1]: effective
- Action in spinal flexor reflex test [7]: effective
- Action in L-5-hydroxytryptophan-induced head twitch test [8]: effective

Compound: N=C(NCCOc1ccccc1)N1CCN2c3ccccc3Cc3ccccc3C2C1 (stereo not shown) [Example 9, 2-(N-2-Phenoxyethylcarboxamidino)-1,2,3,4,10,14b-hexahydrodibenzo[c,f]pyrazino[1,2-a]azepine hydrochloride]
- Effect on Carbachol [2]: - (no effect)
- minimal effective concentration [5]: 0.01 to 0.1 µM
- Effect on Histamine [5]: ++
- Effect on KCl [6]: - (no effect)

Compound: N=C(N)N1CCN2c3ccccc3Cc3ccccc3C2C1 (stereo not shown) [Example 2, 2-Carboxamidino-1,2,3,4,10,14b-hexahydrodibenzo [c,f]pyrazino[1,2-a]azepineHydrochloride]
- Depressor effects of histamine [9]: blocked
- Action in morphine induced catalepsy test [1]: failed to demonstrate any inhibitory or other actions
- Action on the central nervous system: behavioural changes in the cat (conscious cats; cat): failed to demonstrate any inhibitory or other actions
- Overt behavioural changes or acute toxicity (conscious cats; conscious cats, relatively large subcutaneous doses): No overt behavioural changes or acute toxicity
- Bradycardia and depressor response (Bezold-Jarisch reflex) to 5-hydroxytryptamine [10]: reduced
- Penetration into the central nervous system ([11]; concluded from four CNS test situations): does not penetrate into the central nervous system
- Diarrhoea caused by L-5-hydroxytryptophan [12]: inhibited
- Effect on Carbachol [2]: - (no effect)
- minimal effective dose [4]: ≥ 0.03 mg/kg
- Effects of histamine (depressor) in cats [13]: blocked
- minimal effective concentration [5]: 0.01 µM
- Effect on Histamine [5]: ++
- Nature of the antagonism to histamine ([5]; guinea-pig isolated ileum, relatively resistant to washing): persistent and non-competitive
- Contractions of the guinea-pig isolated ileum caused by histamine ([5]; low concentrations): inhibit
- Duration of block of the pressor effects of 5-hydroxytryptamine [14]: over 30 minutes
- Action in spinal flexor reflex test [7]: failed to demonstrate any inhibitory or other actions
- Action in L-5-hydroxytryptophan-induced head twitch test [8]: failed to demonstrate any inhibitory or other actions
- Duration of block of the pressor effects of 5-hydroxytryptamine [15]: over 30 minutes
- minimal effective dose ([16]; Felis catus, intravenous, read-out: Intravenous dose causing long-lasting rises in arterial blood pressure and heart rate): ≥ 0.1 mg/kg
- Pressor responses of the indirectly acting sympathomimetic agent tyramine [16, 21]: blockade
- Pressor responses to noradrenaline and sympathetic nerve stimulation [16, 21]: potentiation
- minimal effective dose ([17]; Rattus norvegicus, intravenous, read-out: Intravenous dose causing long-lasting rises in arterial blood pressure and heart rate): ≥ 0.1 mg/kg
- Pressor responses of the indirectly acting sympathomimetic agent tyramine [17, 21]: blockade
- Pressor responses to noradrenaline and sympathetic nerve stimulation [17, 21]: potentiation
- Contractions of rat isolated stomach strip caused by 5-hydroxytryptamine ([18]; low concentrations): inhibit
- Nature of the antagonism to 5-hydroxytryptamine ([18]; rat isolated stomach strip, relatively resistant to washing): persistent and non-competitive
- Oedema in the rat paw caused by intraplantar 5-hydroxytryptamine ([19]; oral and subcutaneous): inhibited
- Oral absorption indicated by ratio of oral to subcutaneous dose ([19]; rat paw oedema): relatively good oral absorption

Compound: CCNC(=S)N1CCN2c3ccccc3Cc3ccccc3C2C1 (stereo not shown) [Example 12, 2-(N-Ethylthiocarboxamido)-1,2,3,4,10,14b-hexahydrodibenzo[c,f]pyrazino[1,2-a]azepine]
- Effect on Carbachol [2]: - (no effect)
- minimal effective concentration [5]: 0.01 to 0.1 µM
- Effect on Histamine [5]: ++
- Effect on KCl [6]: - (no effect)

Compound: CCNC(=N)N1CCN2c3ccccc3Cc3ccccc3C2C1 (stereo not shown) [Example 11, 2-(N-Ethylcarboxamidino)-1,2,3,4,10,14b-hexahydrodibenzo[c,f]pyrazino[1,2-a]azepine hydrochloride]
- Effect on Carbachol [2]: - (no effect)
- minimal effective concentration [5]: 0.01 to 0.1 µM
- Effect on Histamine [5]: ++
- Block of effect on heart rate of both histamine and 5-hydroxytryptamine [20]: not
- Effect on blood pressure of both histamine and 5-hydroxytryptamine [20]: complete block
- Effect on KCl [6]: - (no effect)

Compound: CCNC(=NC#N)N1CCN2c3ccccc3Cc3ccccc3C2C1 (stereo not shown) [Example 7, 2-(N-Cyano-N'-ethyl-carboxamidino)-1,2,3,4,10,14b-hexahydrodibenzo[c,f]pyrazino[1,2-a]azepine]
- Effect on Carbachol [2]: - (no effect)
- minimal effective concentration [5]: 0.01 to 0.1 µM
- Effect on Histamine [5]: ++
- Effect on KCl [6]: - (no effect)

Compound: NC(=O)CN1CCN2c3ccccc3Cc3ccccc3C2C1 (stereo not shown) [Example 13, 2-(Carboxamidomethyl)-1,2,3,4,10,14b-hexahydrodibenzo [c,f]pyrazino[1,2-a]azepine hydrochloride]
- Ability to penetrate into the CNS [11]: able to penetrate into the CNS
- Effect on Carbachol [2]: - (no effect)
- minimal effective concentration [5]: 0.01 to 0.1 µM
- Effect on Histamine [5]: ++
- Effect on KCl [6]: - (no effect)

Compound: CCNC(=O)N1CCN2c3ccccc3Cc3ccccc3C2C1 (stereo not shown) [Example 10, 2-(N-Ethylcarboxamido)-1,2,3,4,10,14b-hexahydrodibenzo[c,f]pyrazino[1,2-a]azepine]
- Effect on Carbachol [2]: - (no effect)
- minimal effective concentration [5]: 0.1 µM
- Effect on Histamine [5]: + (block)
- Effect on KCl [6]: - (no effect)

Compound: NC(=O)CCN1CCN2c3ccccc3Cc3ccccc3C2C1 (stereo not shown) [Example 14, 2-(2-Carboxamidoethyl)-1,2,3,4,10,14b-hexahydrodibenzo[c,f]pyrazino[1,2-a]azepine]
- Ability to penetrate into the CNS [11]: able to penetrate into the CNS
- Effect on Carbachol [2]: - (no effect)
- minimal effective concentration [5]: 0.01 to 0.1 µM
- Effect on Histamine [5]: ++
- Effect on KCl [6]: - (no effect)
